In patent US20100298141A1, “SUBSTITUTED PYRIDINE N-OXIDE HERBICIDES” (E. I. DU PONT DE NEMOURS AND COMPANY, priority 2007, published 2010):

Legend:
spanishneedles = assay: Test F preemergence test; type: in vivo, Bidens bipinnata; conditions: scale 0 to 100
Text: (§1) Seeds of plant species selected from bermudagrass (Cynodon dactylon), Surinam grass (Brachiaria decumbens), large crabgrass (Digitaria sanguinalis), green foxtail (Setaria viridis), goosegrass (Eleusine indica), johnsongrass (Sorghum halepense), kochia (Kochia scoparia), pitted morningglory (Ipomoea lacunosa), purple nutsedge (Cyperus rotundus), common ragweed (Ambrosia elation), mustard (Brassica nigra), guineagrass (Panicum maximum), […] (Paspalum dilatatum), barnyardgrass (Echinochloa crus-galli), southern sandbur (Cenchrus echinatus), common sowthistle (Sonchus oleraceous), prickly […] spinosa), Italian ryegrass (Lolium multiflorum), common purslane (Portulaca oleracea), broadleaf signalgrass (Brachiaria platyphylla), common groundsel (Senecio vulgaris), common chickweed (Stellaria media), Virginia dayflower (Commelina virginica), annual bluegrass (Poa annua), naked crabgrass (Digitaria nuda), […] cochinchinensis), quackgrass (Elytrigia repens), Canada horseweed (Conyza canadensis), field bindweed (Convolvulus arvensis), […] (Bidens bipinnata), common mallow (Malva sylvestris), Russian thistle (Salsola kali), and sugarcane (Saccharum officinarum) were planted and treated preemergence with test chemicals formulated in a non-phytotoxic solvent mixture which included a surfactant. At a different time, sugarcane was treated with postemergence applications of some of the test chemicals formulated in the same manner. Plants were approximately 3- to 4-leaf stage for the postemergence treatments. Treated plants and controls were maintained in a greenhouse for 14 to 21 days, after which time all species were compared to controls and visually evaluated. […] A dash (-) response means no test result.

common sowthistle = assay: Test F preemergence test; type: in vivo, Sonchus oleraceous; conditions: scale 0 to 100
Text: as §1

Row | SMILES | Plant response rating, Spanishneedles (spanishneedles; 16 g ai/ha, preemergence) | Spanishneedles plant response rating (spanishneedles; 125 g ai/ha, preemergence) | Plant response rating, Spanishneedles (spanishneedles; Preemergence, 62 g ai/ha) | Plant response rating, Spanishneedles (spanishneedles; Preemergence, 31 g ai/ha) | Plant response rating, Sowthistle (common sowthistle; 16 g ai/ha, preemergence) | Sowthistle plant response rating (common sowthistle; 125 g ai/ha, preemergence) | Plant response rating, Sowthistle (common sowthistle; Preemergence, 62 g ai/ha) | Plant response rating, Sowthistle (common sowthistle; Preemergence, 31 g ai/ha) | Spanishneedles plant response rating (spanishneedles; 250 g ai/ha, preemergence) | Sowthistle plant response rating (common sowthistle; 250 g ai/ha, preemergence)
1 | Cn1nc(C(F)(F)F)c(C[S+]([O-])c2ccc(Cl)c[n+]2[O-])c1OCC(F)F (stereo not drawn) [Compound 85] | 50 | 100 | 100 | 50 | 0 | 100 | 100 | 0 | – | –
2 | CCn1nc(C(F)(F)F)c(C[S+]([O-])c2cc(C)cc[n+]2[O-])c1OCC(F)(F)F (racemic) [Compound 66] | 15 | 100 | 80 | 65 | 0 | 100 | 100 | 0 | – | –
3 | CCc1cc[n+]([O-])c(S(=O)(=O)Cc2c(C(F)(F)F)nn(C)c2OCC(F)(F)F)c1 [Compound 60] | – | 80 | 80 | 20 | – | 100 | 100 | 80 | 100 | 100
